What was measured:
[1] = target: T1, G-protein coupled receptor 6 (Homo sapiens, UniProt P46095); assay: Modulation activity at GPR6 receptor (unknown origin) expressed in CHO-K1 cells assessed as inhibition of constitutive cAMP activity incubated for 45 mins in presence of 300 uM IBMX by Perkin Elmer Lance HTRF Ultrac-AMP assay; assay type: functional, cell-based
[2] = target: T1, G-protein coupled receptor 6; assay: Modulation activity at GPR6 receptor (unknown origin) expressed in CHO-K1 cells assessed as inhibition of constitutive cAMP activity incubated for 45 mins by Perkin Elmer Lance HTRF Ultrac-AMP assay; assay type: functional, cell-based

T1 sequence (P46095 whole entry): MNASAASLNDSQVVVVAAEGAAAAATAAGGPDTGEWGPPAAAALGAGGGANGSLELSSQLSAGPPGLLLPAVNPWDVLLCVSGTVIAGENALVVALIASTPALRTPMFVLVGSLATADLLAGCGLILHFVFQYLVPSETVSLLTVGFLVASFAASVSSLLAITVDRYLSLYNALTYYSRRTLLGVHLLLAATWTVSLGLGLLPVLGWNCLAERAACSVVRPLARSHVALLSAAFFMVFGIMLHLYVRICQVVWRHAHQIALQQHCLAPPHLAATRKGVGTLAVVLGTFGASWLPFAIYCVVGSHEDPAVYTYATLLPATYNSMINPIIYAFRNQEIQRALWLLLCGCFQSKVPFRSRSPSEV

| SMILES | IC50 ([1]; cho-k1) | IC50 [2] | also measured |
| --- | --- | --- | --- |
| CC1c2nc(N3CCC(Oc4ccc(F)cc4F)CC3)c(NCC(F)F)nc2CCN1C(=O)N(C)C (centres undefined) | 93.5 nM | – | – |
| CC(C)Nc1nc2c(nc1N1CCC(Oc3ccc(F)cc3F)CC1)CCN(C(=O)C(F)F)C2C (centres undefined) | 95 nM | – | – |
| CC(C)Nc1nc2c(nc1N1CCC(Oc3ccc(F)cc3F)CC1)CCN(CCF)C2 | 74.8 nM | – | – |
| CC(=O)N1CCc2nc(N3CCN(Cc4ccc(C#N)cc4F)CC3)c(NC(C)C)nc2C1 | 363 nM | – | – |
| CC(=O)O[C@H]1C[C@@H](Nc2nc3c(nc2N2CCN(Cc4ccc(F)cc4F)CC2)CCN(C(C)=O)C3)C1 | 220 nM | – | – |
| CC1Cc2nc(NCC(F)F)c(N3CCC(Oc4ccc(F)cc4F)CC3)nc2CN1C(=O)C(F)F (centres undefined) | – | 22.1 nM | – |
| CC(=O)N1CCc2nc(NC(C)C)c(N3CCC(S(=O)(=O)c4ccccc4F)CC3)nc2C1 | 247 nM | – | – |
| CC(=O)N1CCc2nc(NC(C)C)c(N3CCC(S(=O)(=O)c4ccc(F)cc4)CC3)nc2C1 | 188 nM | – | – |
| CN(C)C(=O)N1CCc2nc(N3CCC(Oc4ccc(F)cc4F)CC3)c(NCC(F)F)nc2C1 | – | 26.9 nM | – |
| CC(C)Nc1nc2c(nc1N1CCC(Oc3ccc(F)cc3F)CC1)C(C)N(C(=O)C(F)F)CC2 (centres undefined) | 116 nM | – | – |
| CC1c2nc(N3CCC(Oc4ccc(F)cc4F)CC3)c(NCC(F)F)nc2CCN1S(C)(=O)=O (centres undefined) | – | 52 nM | – |
| CC(=O)N1CCc2nc(N3CCC(C(F)c4ccc(F)cc4F)CC3)c(NC(C)C)nc2C1 (centres undefined) | – | 13.4 nM | – |
| CCC(=O)N1CCc2nc(N3CCN(Cc4ccc(F)cc4F)CC3)c(NC(C)C)nc2C1 | 30.9 nM | – | – |
| CC(C)Nc1nc2c(nc1N1CCC(C(=O)c3cc(Cl)ccc3F)CC1)CCN(C(=O)N(C)C)C2 | – | 32.7 nM | – |
| CO[C@@H](C)C(=O)N1CCc2nc(N3CCC(Oc4ccc(F)cc4F)CC3)c(NCC(F)F)nc2C1 | – | 111 nM | – |
| COC(C)C(=O)N1CCc2nc(N3CCC(Oc4ccc(F)cc4F)CC3)c(NC(C)C)nc2C1 (centres undefined) | – | 16.8 nM | – |
| CC[C@H](C)Nc1nc2c(nc1N1CCC(Oc3ccc(F)cc3F)CC1)CCN(C(C)=O)C2 | 62 nM | – | – |
| CC(=O)N1CCc2nc(NC(C)C)c(N3CCC(Oc4ccc(C#N)cc4F)CC3)nc2C1 | – | 105 nM | – |
| COC(=O)N1CCc2nc(N3CCC(Oc4ccc(F)cc4F)CC3)c(NC(C)C)nc2C1 | 130 nM | – | – |
| COc1ccc(OC2CCN(c3nc4c(nc3NC3CC3)CCN(C)C4)CC2)c(F)c1 | – | 145 nM | – |
| CO[C@H](C)C(=O)N1Cc2nc(N3CCC(Oc4ccc(F)cc4F)CC3)c(NCC(F)F)nc2CC1C (some centres undefined) | – | 18.5 nM | – |
| COc1ccc(S(=O)(=O)C2CCN(c3nc4c(nc3NC(C)C)CCN(C(C)=O)C4)CC2)c(F)c1 | 200 nM | – | – |

| SMILES | IC50 ([1]; cho-k1) | IC50 [2] | also measured |
| --- | --- | --- | --- |
| COc1ccc(OC2CCN(c3nc4c(nc3NC(C)C)CN(C(=O)N(C)C)CC4)CC2)c(F)c1 | – | 35 nM | – |
| CC(C)Nc1nc2c(nc1N1CCC(Oc3ccc(F)cc3F)CC1)CCN(C(=O)[C@@H]1CCCN1C)C2 | 78.1 nM | – | – |
| CN(C)C(=O)N1CCc2nc(NCC(F)F)c(N3CCC(Oc4ccc(F)cc4F)CC3)nc2C1 | – | 9.1 nM | – |
| COC[C@@H](C)Nc1nc2c(nc1N1CCC(Oc3ccc(F)cc3F)CC1)CCN(C(C)=O)C2 | – | – | IC50 [1]: > 1000 nM |
| CC(C)Nc1nc2c(nc1N1CCC(Oc3ccc(F)cc3F)CC1)CCN(S(C)(=O)=O)C2 | 61.8 nM | – | – |
| O=C(C(F)F)N1CCc2nc(N3CCC(Oc4ccc(F)cc4F)CC3)c(NCC(F)F)nc2C1 | – | 78.8 nM | – |
| CN1CCc2nc(NC3CC3)c(N3CCC([C@H](F)c4ccc(F)cc4F)CC3)nc2C1 | – | 15.2 nM | – |
| CC(C)Nc1nc2c(nc1N1CCC(Oc3ccc(F)cc3F)CC1)CN(C=O)CC2 | 43.2 nM | – | – |
| CC1Cc2nc(NCC(F)F)c(N3CCC(Oc4ccc(F)cc4F)CC3)nc2CN1C(=O)N(C)C (centres undefined) | – | 31.4 nM | – |
| CCC(=O)N1CCc2nc(N3CCC(Oc4ccc(F)cc4F)CC3)c(N[C@H]3CCOC3)nc2C1 | 39.2 nM | – | – |
| CC(C)Nc1nc2c(nc1N1CCN(Cc3ccc(F)cc3F)CC1)CCN(S(C)(=O)=O)C2 | 27.9 nM | – | – |
| COCCNC(=O)N1CCc2nc(N3CCC(Oc4ccc(F)cc4F)CC3)c(NC(C)C)nc2C1 | – | 29.8 nM | – |
| CC(C)Nc1nc2c(nc1N1CCC([C@H](F)c3ccc(F)cc3F)CC1)CCN(C=O)C2 | 11.4 nM | – | – |
| CC(=O)N1CCc2nc(N3CCC(Oc4ccc(F)cc4F)CC3)c(N[C@H]3C[C@@H](O)C3)nc2C1 | 61.5 nM | – | – |
| CC(=O)N1CCc2nc(N3CCC(Oc4ccc(F)cc4F)CC3)c(NC3CCC3)nc2C1 | 55 nM | – | – |
| CS(=O)(=O)N1CCc2nc(N3CCC(Oc4ccc(F)cc4F)CC3)c(NC3CCC3)nc2C1 | 49.3 nM | – | – |
| CC(=O)N1CCc2nc(N3CCC(Oc4ccc(F)cc4F)CC3)c(NCC(F)F)nc2C1 | 49.7 nM | – | – |
| CC1Cc2nc(NCC(F)F)c(N3CCC(Oc4ccc(F)cc4F)CC3)nc2CN1S(C)(=O)=O (centres undefined) | – | 10.4 nM | – |
| CC(=O)N1Cc2nc(N3CCC(Oc4ccc(F)cc4F)CC3)c(NCC(F)F)nc2CC1C (centres undefined) | – | 24.9 nM | – |
| CC(C)Nc1nc2c(nc1N1CCC(Oc3ccc(F)cc3F)CC1)C(C)N(C(=O)C1CC1)CC2 (centres undefined) | – | 259 nM | – |
| CC(=O)N1CCc2nc(NC(C)C)c(N3CCC(C(=O)c4cc(Cl)ccc4F)CC3)nc2C1 | – | 9.8 nM | – |
| CC(=O)N1CCc2nc(N3CCN(Cc4ccc(F)cc4F)CC3)c(N[C@@H]3CCOC3)nc2C1 | 63.2 nM | – | – |
